# Results taken from ChEMBL document CHEMBL6078637, “Cyclic Diguanylate G-Quadruplex Inducer-Quorum Sensing Inhibitor Hybrids as Bifunctional Anti-biofilm and Anti-virulence Agents Against Pseudomonas aeruginosa” (J Med Chem, 2024).
# Calls of active or inactive are those of the source. The calls are words filed in the database; no cut-off is given here.
# Assays:
# [1] = Toxicity in Caenorhabditis elegans infected with Pseudomonas aeruginosa PAO1 assessed as nematode survival at 2 ug incubated for 48 hrs; settings: in vivo, at 2 µg
# Pseudomonas aeruginosa [2] = experiment: Antibacterial activity against Pseudomonas aeruginosa PAO1 incubated for 24 hrs by absorbance based assay; assay type: functional
# [3] = Hemolytic activity in rabbit erythrocytes assessed as damage in cell membrane integrity at 100 uM incubated for 4 hrs by absorbance based assay; assay type: toxicity, Oryctolagus cuniculus; settings: erythrocyte
# Pseudomonas aeruginosa [4] = experiment: Inhibition of twitching motility of Pseudomonas aeruginosa PAO1 at 10 uM incubated overnight by crystal voilet staining based analysis; assay type: functional, organism-based
# Pseudomonas aeruginosa [5] = experiment: Inhibition of beta-galactosidase in Pseudomonas aeruginosa PAO1 harboring mini-ctx-lacZ at 10 uM incubated for 6 hrs by ONPG test relative to control
# Pseudomonas aeruginosa [6] = experiment: Antivirulence activity against Pseudomonas aeruginosa PAO1 assessed as reduction in elastase level at 10 uM incubated for 24 hrs by elastin-Congo red staining based analysis relative to control; assay type: functional; set-up: scale not given: the % may be the effect or the level left
# Pseudomonas aeruginosa [7] = experiment: Inhibition of swarming motility of Pseudomonas aeruginosa PAO1 at 10 uM incubated overnight; assay type: functional, organism-based
# [8] = Toxicity in Caenorhabditis elegans infected with hyper-biofilm phenotype Pseudomonas aeruginosa PAO1 harboring wspF mutant assessed as nematode death at 10 uM incubated for 48 hrs in presence of tetracycline
# Pseudomonas aeruginosa [9] = experiment: Synergistic inhibition of bacterial virulence of Pseudomonas aeruginosa PAO1 infected in Caenorhabditis elegans upto 10 uM incubated for 36 hrs in presence of TOB; assay type: functional, organism-based
# Pseudomonas aeruginosa [10] = experiment: Antibiofilm activity against Pseudomonas aeruginosa PAO1 harboring wspF mutant assessed as inhibition rate at 1.25 uM incubated for 24 hrs by absorbance based assay relative to control; assay type: functional
# Pseudomonas aeruginosa [11] = experiment: Synergistic antibacterial activity against Pseudomonas aeruginosa PAO1 assessed as bacterial growth inhibition at 20 uM incubated for 24 hrs in presence of tetracycline by CFU counting method; assay type: functional, organism-based
# [12] = Toxicity in Caenorhabditis elegans infected with Pseudomonas aeruginosa PAO1 assessed as reduction in nematode mortality rate at 10 uM incubated for 48 hrs in presence of TOB; set-up: scale not given: the % may be the effect or the level left
# Pseudomonas aeruginosa [13] = experiment: Inhibition of swimming motility of Pseudomonas aeruginosa PAO1 at 10 uM incubated overnight relative to control; assay type: functional
# Pseudomonas aeruginosa [14] = experiment: Downregulation of rhlR mRNA level in Pseudomonas aeruginosa PAO1 at 10 uM by RT-qPCR analysis; assay type: functional, organism-based
# Pseudomonas aeruginosa [15] = experiment: Synergistic inhibition of bacterial virulence of hyper-biofilm phenotype Pseudomonas aeruginosa PAO1 harboring wspF mutant upto 10 uM incubated for 36 hrs in presence of TOB; assay type: functional, organism-based
# Pseudomonas aeruginosa [16] = experiment: Inhibition of twitching motility of Pseudomonas aeruginosa PAO1 incubated overnight by crystal voilet staining based analysis; assay type: functional, organism-based; settings: dose <= 10.0 µM
# Vero = experiment: Cytotoxicity against African green monkey Vero cells at 12.5 uM incubated for 24 hrs by MTT assay; assay type: toxicity, cell-based; settings: chlorocebus sabaeus
# Pseudomonas aeruginosa [17] = experiment: Inhibition of swarming motility of Pseudomonas aeruginosa PAO1 incubated overnight; assay type: functional, organism-based; settings: dose <= 10.0 µM
# [18] = Toxicity in Caenorhabditis elegans assessed as nematode survival upto 100 uM incubated for 96 hrs
# [19] = Inhibition of quorum sensing system in Pseudomonas aeruginosa PAO1 harboring mini-ctx-lasB-lacZ at 10 uM measured after 16 hrs by ONPG test relative to control
# [20] = Toxicity in Caenorhabditis elegans infected with hyper-biofilm phenotype Pseudomonas aeruginosa PAO1 harboring wspF mutant assessed as nematode death at 10 uM incubated for 48 hrs in presence of TOB
# Pseudomonas aeruginosa [21] = experiment: Synergistic inhibition of bacterial virulence of hyper-biofilm phenotype Pseudomonas aeruginosa PAO1 harboring wspF mutant upto 10 uM incubated for 36 hrs in presence of tetracycline; assay type: functional, organism-based
# Pseudomonas aeruginosa [22] = experiment: Antivirulence activity against Pseudomonas aeruginosa PAO1 assessed as reduction in hemolysin level at 10 uM preincubated for 24 hrs followed by addition of erythrocytes measured after 30 mins by absorbance based analysis relative to control; assay type: functional; set-up: scale not given: the % may be the effect or the level left
# [23] = Toxicity in Caenorhabditis elegans infected with Pseudomonas aeruginosa PAO1 assessed as nematode survival at 10 uM incubated for 48 hrs
# Pseudomonas aeruginosa [24] = experiment: Downregulation of pelA mRNA level in Pseudomonas aeruginosa PAO1 at 10 uM by RT-qPCR analysis; assay type: functional, organism-based
# Pseudomonas aeruginosa [25] = experiment: Inhibition of beta-galactosidase in Pseudomonas aeruginosa PAO1 harboring mini-ctx-rhlA-lacZ at 10 uM incubated for 6 hrs by ONPG test relative to control
# Pseudomonas aeruginosa [26] = experiment: Antivirulence activity against Pseudomonas aeruginosa PAO1 assessed as reduction in elastase level incubated for 24 hrs by elastin-Congo red staining based analysis; assay type: functional, organism-based; settings: dose <= 10.0 µM
# Pseudomonas aeruginosa [27] = experiment: Antibiofilm activity against Pseudomonas aeruginosa PAO1 harboring wspF mutant assessed as inhibition rate at 10 uM incubated for 24 hrs by absorbance based assay relative to control; assay type: functional
# Pseudomonas aeruginosa [28] = experiment: Synergistic inhibition of bacterial virulence of Pseudomonas aeruginosa PAO1 infected in Caenorhabditis elegans upto 10 uM incubated for 36 hrs in presence of tetracycline; assay type: functional, organism-based
# Pseudomonas aeruginosa [29] = experiment: Inhibition of beta-galactosidase in Pseudomonas aeruginosa PAO1 harboring mini-ctx-pqsA-lacZ at 10 uM incubated for 6 hrs by ONPG test relative to control
# Pseudomonas aeruginosa [30] = experiment: Inhibition of beta-galactosidase in Pseudomonas aeruginosa PAO1 harboring mini-ctx-lasB-lacZ at 10 uM incubated for 6 hrs by ONPG test relative to control
# Pseudomonas aeruginosa [31] = experiment: Antivirulence activity against Pseudomonas aeruginosa PAO1 assessed as reduction in pyocyanin level at 10 uM incubated for 24 hrs by absorbance based assay relative to control; assay type: functional; set-up: scale not given: the % may be the effect or the level left
# DNA [32] = experiment: Binding affinity to pBR322 DNA (unknown origin) assessed as DNA embedding toxicity at 50 uM preincubated for 10 mins followed by Topo I addition measured after 1 hr by TO dye based PAGE analysis; assay type: nucleic-acid assay; settings: time 70.0 min
# DNA [33] = experiment: Binding affinity to pBR322 DNA (unknown origin) assessed as DNA migration at 50 uM preincubated for 10 mins followed by Topo I addition measured after 1 hr by TO dye based PAGE analysis; assay type: nucleic-acid assay; settings: time 70.0 min
# Pseudomonas aeruginosa [34] = experiment: Antivirulence activity against Pseudomonas aeruginosa PAO1 assessed as reduction in rhamnolipid level incubated for 24 hrs by orcinol based analysis; assay type: functional, organism-based; settings: dose <= 10.0 µM
# Pseudomonas aeruginosa [35] = experiment: Antivirulence activity against Pseudomonas aeruginosa PAO1 assessed as reduction in rhamnolipid level at 10 uM incubated for 24 hrs by orcinol based analysis; assay type: functional, organism-based
# Pseudomonas aeruginosa [36] = experiment: Downregulation of lasB mRNA level in Pseudomonas aeruginosa PAO1 at 10 uM by RT-qPCR analysis; assay type: functional, organism-based
# Pseudomonas aeruginosa [37] = experiment: Downregulation of rhlA mRNA level in Pseudomonas aeruginosa PAO1 at 10 uM by RT-qPCR analysis; assay type: functional, organism-based
# Pseudomonas aeruginosa [38] = experiment: Inhibition of beta-galactosidase in Pseudomonas aeruginosa PAO1 harboring mini-ctx-lasB-lacZ incubated for 6 hrs by ONPG test; settings: dose <= 10.0 µM
# Pseudomonas aeruginosa [39] = experiment: Antivirulence activity against Pseudomonas aeruginosa PAO1 assessed as reduction in pyocyanin level incubated for 24 hrs by absorbance based assay; assay type: functional, organism-based; settings: dose <= 10.0 µM
# Pseudomonas aeruginosa [40] = experiment: Inhibition of beta-galactosidase in Pseudomonas aeruginosa PAO1 harboring mini-ctx-pqsA-lacZ incubated for 6 hrs by ONPG test; settings: dose <= 10.0 µM
# Pseudomonas aeruginosa [41] = experiment: Antibiofilm activity against Pseudomonas aeruginosa PAO1 harboring wspF mutant incubated for 24 hrs by absorbance based assay; assay type: functional, organism-based
# Pseudomonas aeruginosa [42] = experiment: Downregulation of lasR mRNA level in Pseudomonas aeruginosa PAO1 at 10 uM by RT-qPCR analysis; assay type: functional, organism-based
# Pseudomonas aeruginosa [43] = experiment: Downregulation of pqsR mRNA level in Pseudomonas aeruginosa PAO1 at 10 uM by RT-qPCR analysis; assay type: functional, organism-based
# [44] = Toxicity in Caenorhabditis elegans infected with Pseudomonas aeruginosa PAO1 assessed as nematode survival at 10 uM incubated for 48 hrs in presence of tetracycline
# Pseudomonas aeruginosa [45] = experiment: Inhibition of swimming motility of Pseudomonas aeruginosa PAO1 incubated overnight; assay type: functional, organism-based; settings: dose <= 10.0 µM
smiles,measurement,setting,value
CN(C)[C@@H]1C(O)=C(C(N)=O)C(=O)[C@@]2(O)C(O)=C3C(=O)c4c(O)cccc4[C@@](C)(O)[C@H]3C[C@@H]12 [TETRACYCLINE],Survival,[1],~ 10%
same,MIC,Pseudomonas aeruginosa [2],> 128 µM
C[n+]1c(/C=C/c2c[nH]c3ccccc23)ccc2ccccc21.[I-],Activity,[3],Non-toxic
same,inhibition,Pseudomonas aeruginosa [4],Active; Exhibited Only A Modest Impact
same,inhibition,Pseudomonas aeruginosa [5],20.4%
same,Activity,Pseudomonas aeruginosa [6],59.02%
same,inhibition,Pseudomonas aeruginosa [7],Active; Inhibitory Effect Was Comparable To Qs Deficient Pao1 Double Mutant Lasi/Rhli
same,Activity,[8],Non-toxic
same,Activity,Pseudomonas aeruginosa [9],Active
same,inhibition at 1.25 µM,Pseudomonas aeruginosa [10],~21%
same,Activity,Pseudomonas aeruginosa [11],Active
same,Activity,[12],~ 50%
same,inhibition at 10 µM,Pseudomonas aeruginosa [13],29.2%
same,Activity,Pseudomonas aeruginosa [14],Active
same,Activity,Pseudomonas aeruginosa [15],Active
same,inhibition,Pseudomonas aeruginosa [16],Dose-dependent-effect
same,Activity,Vero,Non-toxic
same,inhibition,Pseudomonas aeruginosa [17],Dose-dependent-effect
same,Activity,[18],Non-toxic
same,inhibition,[19],44.5%
same,Activity,[20],Non-toxic
same,Activity,Pseudomonas aeruginosa [21],Active
same,Activity,Pseudomonas aeruginosa [22],62.38%
same,Activity,[23],Toxic
same,Activity,Pseudomonas aeruginosa [24],Active
same,inhibition,Pseudomonas aeruginosa [25],10%
same,Activity,Pseudomonas aeruginosa [26],Dose-dependent-effect
same,inhibition at 10 µM,Pseudomonas aeruginosa [27],~40%
same,Activity,Pseudomonas aeruginosa [28],Active
same,inhibition,Pseudomonas aeruginosa [29],30%
same,MIC,Pseudomonas aeruginosa [2],> 128 µM
same,inhibition,Pseudomonas aeruginosa [30],30%
same,Activity,Pseudomonas aeruginosa [31],~40%
same,Activity,DNA [32],Not toxic
same,Activity,DNA [33],Not toxic
same,Activity,Pseudomonas aeruginosa [34],Dose-dependent-effect
same,Activity,Pseudomonas aeruginosa [35],Active; Exhibited Relatively Modest Activity
same,Activity,Pseudomonas aeruginosa [36],Active
same,Activity,Pseudomonas aeruginosa [37],Active
same,inhibition,Pseudomonas aeruginosa [38],Dose-dependent-effect
same,Activity,Pseudomonas aeruginosa [39],Dose-dependent-effect
same,inhibition,Pseudomonas aeruginosa [40],Dose-dependent-effect
same,inhibition,Pseudomonas aeruginosa [41],Dose-dependent-effect
same,IC50,"Pseudomonas aeruginosa [41]; PAO1, 24 h",14.9 µM
same,Activity,Pseudomonas aeruginosa [42],Active
same,Activity,Pseudomonas aeruginosa [43],Active
same,Survival,[44],95%
same,inhibition,Pseudomonas aeruginosa [45],Dose-dependent-effect
